Patent US9125913B2, “Bcl-2-selective apoptosis-inducing agents for the treatment of cancer and immune diseases” (AbbVie Inc., priority 2008, dated 2015)

The compounds below were run on GST-Bcl-2 (assay: TR-FRET binding assay, Bcl-2). Conditions: TR-FRET Ki values.
Summary of the method: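 Ki values come from Wang's competitive-binding equation applied to TR-FRET signal (excitation 340/35 nm; emission 520/525 nm F-Bak peptide, 495/510 nm Tb antibody). Protein, probe and antibody incubated with compound 3 h at room temperature; dilution series began at 50 μM as 2× stock in 10% DMSO.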
In the case of CC1(C)CCC(CN2CCN(c3ccc(C(=O)NS(=O)(=O)c4ccc(NCC5CN(C6CC6)CCO5)c([N+](=O)[O-])c4)c(Oc4cccc5[nH]cnc45)c3)CC2)=C(c2ccc(Cl)cc2)C1 (centres unmarked) [EXAMPLE 432, 2-(1H-benzimidazol-4-yloxy)-4-(4-{[2-(4-chlorophenyl)-4,4-dimethylcyclohex-1-en-1-yl]methyl}piperazin-1-yl)-N-[(4-{[(4-cyclopropylmorpholin-2-yl)methyl]amino}-3-nitrophenyl)sulfonyl]benzamide], the “Binding selectivity ratio (Bcl-XL Ki/Bcl-2 Ki)” value (“Binding selectivity ratio” for short) was 408.8.
In the case of CC1(C)CCC(CN2CCN(c3ccc(C(=O)NS(=O)(=O)c4ccc(OCC5CCOCC5)c([N+](=O)[O-])c4)c(Oc4ccc5[nH]ccc5c4)c3)CC2)=C(c2ccc(Cl)cc2)C1 [EXAMPLE 279, 4-(4-{[2-(4-chlorophenyl)-4,4-dimethylcyclohex-1-en-1-yl]methyl}piperazin-1-yl)-2-(1H-indol-5-yloxy)-N-{[3-nitro-4-(tetrahydro-2H-pyran-4-ylmethoxy)phenyl]sulfonyl}benzamide], the “Binding selectivity ratio” value was over 6923.2.
COCCCNc1ccc(S(=O)(=O)NC(=O)c2ccc(N3CCN(CC4=C(c5ccc(Cl)cc5)CC(C)(C)CC4)CC3)cc2Oc2ccc3[nH]ccc3c2)cc1[N+](=O)[O-] [EXAMPLE 317, 4-(4-{[2-(4-chlorophenyl)-4,4-dimethylcyclohex-1-en-1-yl]methyl}piperazin-1-yl)-2-(1H-indol-5-yloxy)-N-({4-[(3-methoxypropyl)amino]-3-nitrophenyl}sulfonyl)benzamide] was tested, and the “Binding selectivity ratio” value was over 235.9.
Cc1ccc(S(=O)(=O)NC(=O)c2ccc(N3CCN(Cc4ccccc4-c4ccc(Cl)cc4)CC3)cc2Oc2ccccc2)cc1 [Example 61, 4-{4-[(4′-chloro-1,1′-biphenyl-2-yl)methyl]piperazin-1-yl}-N-[(4-methylphenyl)sulfonyl]-2-phenoxybenzamide] was tested, and the “Binding selectivity ratio” value was over 12.6.
In the case of CC1(C)CCC(CN2CCN(c3ccc(C(=O)NS(=O)(=O)c4ccc(NN5CCOCC5)c([N+](=O)[O-])c4)c(Oc4ccc5[nH]ccc5c4)c3)CC2)=C(c2ccc(Cl)cc2)C1 [EXAMPLE 260, 4-(4-{[2-(4-chlorophenyl)-4,4-dimethylcyclohex-1-en-1-yl]methyl}piperazin-1-yl)-2-(1H-indol-5-yloxy)-N-{[4-(morpholin-4-ylamino)-3-nitrophenyl]sulfonyl}benzamide], the “Binding selectivity ratio” value was over 607.2.
For CN(C)CC[C@H](Nc1ccc(S(=O)(=O)NC(=O)c2ccc(N3CCN(Cc4ccccc4-c4ccc(Cl)cc4)CC3)cc2Oc2ccccc2)cc1[N+](=O)[O-])c1cccs1 [Example 161, 4-{4-[(4′-chloro-1,1′-biphenyl-2-yl)methyl]piperazin-1-yl}-N-[(4-{[(1S)-3-(dimethylamino)-1-thien-2-ylpropyl]amino}-3-nitrophenyl)sulfonyl]-2-phenoxybenzamide], the “Binding selectivity ratio” value was over 386.0.
For CC1(C)CCC(CN2CCN(c3ccc(C(=O)NS(=O)(=O)c4ccc(OCCCS(C)(=O)=O)c([N+](=O)[O-])c4)c(Oc4cccc5[nH]ccc45)c3)CC2)=C(c2ccc(Cl)cc2)C1 [EXAMPLE 316, 4-(4-{[2-(4-chlorophenyl)-4,4-dimethylcyclohex-1-en-1-yl]methyl}piperazin-1-yl)-2-(1H-indol-4-yloxy)-N-({4-[3-(methylsulfonyl)propoxy]-3-nitrophenyl}sulfonyl)benzamide], the “Binding selectivity ratio” value was 533.7.
In the case of CNc1ccc(S(=O)(=O)NC(=O)c2ccc(N3CCN(CC4=C(c5ccc(Cl)cc5)CC(C)(C)CC4)CC3)cc2Oc2ccc3[nH]ccc3c2)cc1S(=O)(=O)C(F)(F)F [EXAMPLE 328, 4-(4-{[2-(4-chlorophenyl)-4,4-dimethylcyclohex-1-en-1-yl]methyl}piperazin-1-yl)-2-(1H-indol-5-yloxy)-N-({4-(methylamino)-3-[(trifluoromethyl)sulfonyl]phenyl}sulfonyl)benzamide], the “Binding selectivity ratio” value was over 355.0.
In the case of CN(C)CCCOc1ccc(-c2ccc(Cl)cc2)c(CN2CCN(c3ccc(C(=O)NS(=O)(=O)c4ccc(NCC5CCOCC5)c([N+](=O)[O-])c4)c(Oc4ccccc4)c3)CC2)c1 [Example 116, 4-[4-({4′-chloro-4-[3-(dimethylamino)propoxy]-1,1′-biphenyl-2-yl}methyl)piperazin-1-yl]-N-({3-nitro-4-[(tetrahydro-2H-pyran-4-ylmethyl)amino]phenyl}sulfonyl)-2-phenoxybenzamide], the “Binding selectivity ratio” value was 230.7.
For COCCOCCNc1ccc(S(=O)(=O)NC(=O)c2ccc(N3CCN(CC4=C(c5ccc(Cl)cc5)CC(C)(C)CC4)CC3)cc2Oc2cccc3[nH]ccc23)cc1[N+](=O)[O-] [EXAMPLE 293, 4-(4-{[2-(4-chlorophenyl)-4,4-dimethylcyclohex-1-en-1-yl]methyl}piperazin-1-yl)-2-(1H-indol-4-yloxy)-N-[(4-{[2-(2-methoxyethoxy)ethyl]amino}-3-nitrophenyl)sulfonyl]benzamide], the “Binding selectivity ratio” value was 505.1.
In the case of CC1(C)CCC(c2ccc(Cl)cc2)=C(CN2CCN(c3ccc(C(=O)NS(=O)(=O)c4ccc(NCCCN5CCOCC5)c([N+](=O)[O-])c4)c(Oc4ccc5[nH]ccc5c4)c3)CC2)C1 [Example 50, 4-(4-{[2-(4-chlorophenyl)-5,5-dimethylcyclohex-1-en-1-yl]methyl}piperazin-1-yl)-2-(1H-indol-5-yloxy)-N-({4-[(3-morpholin-4-ylpropyl)amino]-3-nitrophenyl}sulfonyl)benzamide], the “Binding selectivity ratio” value was 191.2.
In the case of O=C(NS(=O)(=O)c1ccc(NC2CCN(C3CCOCC3)CC2)c([N+](=O)[O-])c1)c1ccc(N2CCN(Cc3ccc(C(F)(F)F)cc3-c3ccc(Cl)cc3)CC2)cc1Oc1ccc2[nH]ccc2c1 [EXAMPLE 358, 4-(4-{[4′-chloro-5-(trifluoromethyl)-1,1′-biphenyl-2-yl]methyl}piperazin-1-yl)-2-(1H-indol-5-yloxy)-N-({3-nitro-4-[(1-tetrahydro-2H-pyran-4-ylpiperidin-4-yl)amino]phenyl}sulfonyl)benzamide], the “Binding selectivity ratio” value was over 121.8.
In the case of CC1(C)CCC(CN2CCN(c3ccc(C(=O)NS(=O)(=O)c4ccc(NCCCN5CCOCC5)c(S(=O)(=O)C(F)(F)F)c4)c(Oc4ccc5[nH]ccc5c4)c3)CC2)=C(c2ccc(Cl)cc2)C1 [EXAMPLE 348, 4-(4-{[2-(4-chlorophenyl)-4,4-dimethylcyclohex-1-en-1-yl]methyl}piperazin-1-yl)-2-(1H-indol-5-yloxy)-N-({4-[(3-morpholin-4-ylpropyl)amino]-3-[(trifluoromethyl)sulfonyl]phenyl}sulfonyl)benzamide], the “Binding selectivity ratio” value was 97.1.
With CC1(C)CCC(CN2CCN(c3ccc(C(=O)NS(=O)(=O)c4ccc(NC5CCN(Cc6cscn6)CC5)c([N+](=O)[O-])c4)c(Oc4ccc5[nH]ccc5c4)c3)CC2)=C(c2ccc(Cl)cc2)C1 [EXAMPLE 231, 4-(4-{[2-(4-chlorophenyl)-4,4-dimethylcyclohex-1-en-1-yl]methyl}piperazin-1-yl)-2-(1H-indol-5-yloxy)-N-[(3-nitro-4-{[1-(1,3-thiazol-4-ylmethyl)piperidin-4-yl]amino}phenyl)sulfonyl]benzamide] the “Binding selectivity ratio” value was over 718.8.
With O=C(NS(=O)(=O)c1ccc(NCC2CCOCC2)c([N+](=O)[O-])c1)c1ccc(N2CCN(CC3=C(c4ccc(Cl)cc4)CCC(N4CCOCC4)C3)CC2)cc1Oc1ccc2[nH]ccc2c1 (centres unmarked) [EXAMPLE 249, 4-(4-{[2-(4-chlorophenyl)-5-morpholin-4-ylcyclohex-1-en-1-yl]methyl}piperazin-1-yl)-2-(1H-indol-5-yloxy)-N-({3-nitro-4-[(tetrahydro-2H-pyran-4-ylmethyl)amino]phenyl}sulfonyl)benzamide] the “Binding selectivity ratio” value was over 7302.0.
In the case of CC1(C)CCC(CN2CCN(c3ccc(C(=O)NS(=O)(=O)c4ccc(NCC5CCOC5)c([N+](=O)[O-])c4)c(Oc4cccc5[nH]cnc45)c3)CC2)=C(c2ccc(Cl)cc2)C1 (centres unmarked) [EXAMPLE 439, 2-(1H-benzimidazol-4-yloxy)-4-(4-{[2-(4-chlorophenyl)-4,4-dimethylcyclohex-1-en-1-yl]methyl}piperazin-1-yl)-N-({3-nitro-4-[(tetrahydrofuran-3-ylmethyl)amino]phenyl}sulfonyl)benzamide], the “Binding selectivity ratio” value was 1496.8.
With CC1(C)CCC(CN2CCN(c3ccc(C(=O)NS(=O)(=O)c4ccc(NCC5CCC(F)(F)CC5)c([N+](=O)[O-])c4)c(Oc4cccc5[nH]ncc45)c3)CC2)=C(c2ccc(Cl)cc2)C1 [EXAMPLE 412, 4-(4-{[2-(4-chlorophenyl)-4,4-dimethylcyclohex-1-en-1-yl]methyl}piperazin-1-yl)-N-[(4-{[(4,4-difluorocyclohexyl)methyl]amino}-3-nitrophenyl)sulfonyl]-2-(1H-indazol-4-yloxy)benzamide] the “Binding selectivity ratio” value was 6545.
For O=C(NS(=O)(=O)c1ccc(NCCCN2CCOCC2)cc1)c1ccc(N2CCN(Cc3ccccc3-c3ccc(Cl)cc3)CC2)cc1Oc1ccccc1 [Example 78, 4-{4-[(4′-chloro-1,1′-biphenyl-2-yl)methyl]piperazin-1-yl}-N-({4-[(3-morpholin-4-ylpropyl)amino]phenyl}sulfonyl)-2-phenoxybenzamide], the “Binding selectivity ratio” value was over 5.9.
For CC1(C)CCC(CN2CCN(c3ccc(C(=O)NS(=O)(=O)c4cnc(O[C@@H]5CCN(C(CF)CF)C5)c(Cl)c4)c(Oc4cccc5[nH]ncc45)c3)CC2)=C(c2ccc(Cl)cc2)C1 [EXAMPLE 434, N-{[5-chloro-6-({(3R)-1-[2-fluoro-1-(fluoromethyl)ethyl]pyrrolidin-3-yl}oxy)pyridin-3-yl]sulfonyl}-4-(4-{[2-(4-chlorophenyl)-4,4-dimethylcyclohex-1-en-1-yl]methyl}piperazin-1-yl)-2-(1H-indazol-4-yloxy)benzamide], the “Binding selectivity ratio” value was 1459.
With O=C(NS(=O)(=O)c1ccc(-n2ncc([N+](=O)[O-])n2)cc1)c1ccc(N2CCN(Cc3ccccc3-c3ccc(Cl)cc3)CC2)cc1Oc1ccccc1 [Example 31, 4-{4-[(4′-chloro-1,1′-biphenyl-2-yl)methyl]piperazin-1-yl}-N-{[4-(4-nitro-2H-1,2,3-triazol-2-yl)phenyl]sulfonyl}-2-phenoxybenzamide] the “Binding selectivity ratio” value was over 18.0.
